Measurements published in PubChem BioAssay (NCI).
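1) Cells in 96-well plates. 2) Compound, 48 h, 5 concentrations. 3) Linear interpolation between surrounding doses. 4) Unreached endpoint = highest concentration. GI50 = concentration required for 50% inhibition of growth. TGI denotes the concentration required for complete inhibition of growth.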

How the values were obtained:
Experiment in all cases: growth of human tumour cells (NCI), 48 h
COLO 205 colon = system: COLO 205 colon
HCC-2998 colon = system: HCC-2998 colon
HOP-62 NSCLC = system: HOP-62 NSCLC
KM12 colon = system: KM12 colon
MALME-3M melanoma = system: MALME-3M melanoma
MOLT-4 leukemia = system: MOLT-4 leukemia
OVCAR-5 ovarian = system: OVCAR-5 ovarian
OVCAR-8 ovarian = system: OVCAR-8 ovarian
SK-MEL-2 melanoma = system: SK-MEL-2 melanoma
SK-MEL-5 melanoma = system: SK-MEL-5 melanoma
SW-620 colon = system: SW-620 colon
HL-60(TB) leukemia = system: HL-60(TB) leukemia
M14 melanoma = system: M14 melanoma

Compound | TGI (COLO 205 colon) [µM] | TGI (HCC-2998 colon) [µM] | TGI (HOP-62 NSCLC) [µM] | TGI (KM12 colon) [µM] | TGI (MALME-3M melanoma) [µM] | TGI (MOLT-4 leukemia) [µM] | TGI (OVCAR-5 ovarian) [µM] | TGI (OVCAR-8 ovarian) [µM] | TGI (SK-MEL-2 melanoma) [µM] | TGI (SK-MEL-5 melanoma) [µM] | TGI (SW-620 colon) [µM] | TGI (HL-60(TB) leukemia) [µM] | TGI (M14 melanoma) [µM] | GI50 (HL-60(TB) leukemia) [µM] | GI50 (SK-MEL-5 melanoma) [µM] | GI50 (SW-620 colon) [µM]
C/C=C/[C@H](O[Si](C)(C)C(C)(C)C)[C@@H](O)/C=C/C(=O)OCC | 40.6 | 34.8 | 39.8 | 32.3 | 28.4 | 37.6 | 79.5 | 34.6 | 82 | 32.2 | 39.2 |  |  |  |  | 
COCCOC(=O)C(C)=[N+]=[N-] | > 100 | > 100 | > 100 | > 100 | > 100 |  | > 100 | > 100 |  | > 100 | > 100 |  |  |  |  | 
CCCCNC(=S)/N=C/c1c(O)c2ccccc2[nH]c1=O | > 10 | > 10 | > 10 | > 10 | > 10 | > 10 | > 10 | > 10 |  |  | > 10 | > 10 | > 10 |  |  | 
Cc1ccc2c(=O)cc(-c3sc4ccccc4c3C)[nH]c2n1 | 65.8 |  | 75.4 | 36.4 | 41.6 | 69.7 | > 100 | 56.3 | > 100 | 28.2 | 65.8 | 42.9 | 51 | 18.5 | 14.9 | 19.8
NCc1cc(O)c(O)c(O)c1 | > 100 |  | > 100 | > 100 | > 100 | > 100 | > 100 | > 100 | > 100 | > 100 | > 100 | > 100 | > 100 |  |  | 
CC(C)(C)OC(=O)N(CCCCNCc1ccc2ccccc2c1)CCCNCc1ccc2ccccc2c1 | 2.72 | 0.549 | 3.87 | 2.73 |  | 2.28 | 3.22 | 3.08 |  |  | 3.54 | 0.507 |  |  |  | 
C=CCN1CN(c2ccccc2)C2(CCN(CCCC3(c4ccc(F)cc4)OCCO3)CC2)C1=O | 37.9 | 35.6 | 36 | 29.8 | 30.6 | 39.6 | 23.8 | 32.5 |  | 29.8 | 36.9 | 29 | 30.6 |  |  | 
Cn1c2ccccc2c(=O)c2[nH]c3ccccc3c21 | > 100 | > 100 | > 100 | > 100 | > 100 | 75.9 | > 100 | > 100 | > 100 | > 100 | > 100 |  | > 100 |  |  | 
COc1cc(C2C(Cl)C(=O)N2NC(=O)c2ccc(NC(C)=O)cc2OC)ccc1O (stereo not given) | 32 |  |  | 68 | 53.6 | 22.1 | 28.4 | 73.3 | 29.9 | 29.4 | 76.3 | 44.8 | 33.9 |  |  | 
CC1(C)O[C@@H](CBr)C[C@H](C[C@H]2C[C@@H](O)C[C@@H](CCOCc3ccccc3)O2)O1 | 54.4 | 53.7 | 42.8 | 40.7 | 35.1 | > 100 | 38.4 | 47.7 | 32 | > 100 | > 100 |  | 50.2 |  |  | 
N#Cc1nc(COCCOCc2ccc(F)cc2)oc1N | > 100 | > 100 | > 100 | > 100 |  | > 100 | > 100 | > 100 | > 100 | > 100 | > 100 | > 100 | > 100 |  |  | 
O=C1Oc2cc3c(c4cccc1c24)O[C@H](c1ccccc1)[C@@H](c1ccccc1)[C@@H]3c1ccc(Cl)cc1 | > 100 | > 100 | 42.8 | > 100 | > 100 | 64.3 | > 100 | 95.8 |  | > 100 | > 100 | > 100 | > 100 |  |  | 
COc1ccc(CCNC(=O)[C@H]2CCCC[C@@H]2CCO)cc1OC | > 100 | > 100 | > 100 | > 100 |  | > 100 | > 100 | > 100 | > 100 | > 100 | > 100 | > 100 | > 100 |  |  | 
CN(C)Cc1cc(N=Nc2ccc(Cl)cc2)ccc1OC(=O)c1ccccc1 | 40.8 | 31 | 26.5 | 29.6 | 31 | 26.1 | 30.6 | 34.4 |  | 28.8 | 30.5 | 43.7 |  |  |  | 
CCOP(=O)(OCC)/C(C#N)=C/c1ccnc2ccccc12 | 38.1 | > 100 | > 100 | 91.3 | > 100 | > 100 | 51 | 52 | 50.5 | 47.8 | > 100 |  | 47.6 |  |  | 
c1ccc(CC2(c3cc4ccccc4[nH]3)OCCO2)nc1 | > 100 |  | > 100 | > 100 | > 100 | > 100 | > 100 | > 100 | > 100 | > 100 | > 100 | > 100 | > 100 |  |  | 
CNCCC=C1c2ccccc2CCc2ccccc21 | 21 |  | 28.2 | 29.6 | 30.3 | 29.4 | 30.2 | 31.7 | 29.2 | 25.5 | 34.6 | 31.7 | 14.7 |  |  | 
C[C@]12CC[C@H](O)CC1=CC[C@@H]1C2CC[C@]2(C)Nc3c(cnn3-c3ccc(F)cc3)CC12 (stereo not given in full) |  | > 100 | 61.1 | > 100 | > 100 | > 100 | > 100 | > 100 |  | > 100 | > 100 | > 100 | > 100 |  |  | 
O=C(CSC1=NNC2(C(=O)N1)c1ccccc1-c1ccccc12)NC(=S)Nc1ccccc1 | > 10 | > 10 | > 10 | > 10 | > 10 | > 10 | > 10 | > 10 |  | > 10 | > 10 | > 10 | > 10 |  |  | 
